From ChEMBL document CHEMBL1133352, “Synthesis and endothelin receptor binding activity of synthetic analogues of RES-1149-2” (Bioorg Med Chem Lett, 2000) come the findings set out here.

Assay [1] has as its target T1, Endothelin receptor type B (Homo sapiens, UniProt P24530).
T1 sequence (P24530 whole entry): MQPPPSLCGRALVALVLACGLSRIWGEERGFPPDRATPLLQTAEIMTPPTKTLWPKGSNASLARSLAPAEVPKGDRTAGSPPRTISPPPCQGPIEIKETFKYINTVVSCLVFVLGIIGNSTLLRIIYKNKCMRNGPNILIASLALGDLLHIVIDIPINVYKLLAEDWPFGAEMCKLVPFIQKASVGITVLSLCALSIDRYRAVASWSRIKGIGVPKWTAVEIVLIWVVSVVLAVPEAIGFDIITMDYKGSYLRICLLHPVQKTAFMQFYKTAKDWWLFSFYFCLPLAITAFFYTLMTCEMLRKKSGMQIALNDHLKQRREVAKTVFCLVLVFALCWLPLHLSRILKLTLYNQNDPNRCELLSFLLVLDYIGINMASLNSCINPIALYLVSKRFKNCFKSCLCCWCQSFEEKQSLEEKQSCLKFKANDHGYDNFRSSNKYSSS
Description: Tested for binding affinity towards human Endothelin B receptor.

The target in assay [2] is T2, Endothelin-1 receptor (Homo sapiens, UniProt P25101).
T2 sequence (P25101 whole entry): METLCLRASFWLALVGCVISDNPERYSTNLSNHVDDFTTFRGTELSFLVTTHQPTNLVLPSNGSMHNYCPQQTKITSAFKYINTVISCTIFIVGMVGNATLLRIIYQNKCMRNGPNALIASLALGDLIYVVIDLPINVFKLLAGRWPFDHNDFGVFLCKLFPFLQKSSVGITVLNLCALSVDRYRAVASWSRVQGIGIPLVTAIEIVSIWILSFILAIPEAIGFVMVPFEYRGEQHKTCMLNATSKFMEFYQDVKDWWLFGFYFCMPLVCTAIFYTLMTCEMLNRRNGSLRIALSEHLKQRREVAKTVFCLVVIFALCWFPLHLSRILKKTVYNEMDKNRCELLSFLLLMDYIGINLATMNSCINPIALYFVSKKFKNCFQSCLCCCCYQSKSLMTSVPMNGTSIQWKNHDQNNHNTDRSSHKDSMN
Description: Tested for binding affinity towards human Endothelin A receptor.

Usually IC50 stands for the concentration at which inhibition is half-maximal. High values mean a need for much substance, low ones inhibition by little substance. In the case of `C/C=C/C=C/C(=O)O[C@@H]1C=C2COC(O)[C@]2(O)CC1` (stereo partly drawn), the IC50 in assay [1] is > 25 µM.

For `C/C=C/C=C/C(=O)O[C@@H]1C=C2COC(OC)[C@]2(O)CC1` (stereo partly drawn), the figures for the IC50 in assay [1] and in assay [2] were > 25 µM and 8.2 µM, respectively.

For the compound `C/C=C/C=C/C(=O)O[C@@H]1C=C2COC(=O)[C@]2(O)CC1`, the IC50 in assay [1] was > 25 µM; in assay [2], 2.6 µM.

With `C/C=C/C=C/C(=O)O[C@@H]1C=C2COC(O)[C@]2(O)[C@@]2(C)CCCC(C)(C)C12` (stereo partly drawn), the IC50 in assay [1] was 148 µM; in assay [2], > 250 µM.

With `C/C=C/C=C/C=C/C(=O)O[C@@H]1C=C2COC(O)[C@]2(O)[C@@]2(C)CCCC(C)(C)C12` (stereo partly drawn), the IC50 in assay [2] worked out at 62 µM.
